Test results published in US9096593B2, “Compounds and methods for kinase modulation, and indications therefor” (Plexxikon Inc., priority 2009, dated 2015).
Read-outs that look alike come from different tables or passages of the source.

Experiments:
[1] = Turbidity assay of relative solubility in aqueous buffers; type: physicochemical; conditions: for turbidity threshold (L, M, H) 1.4: pH 1.4 as headed (method: SGF pH 1.5); for turbidity threshold (L, M, H) 4.5: pH 4.5 (SIF); for turbidity threshold (L, M, H) 6.8: pH 6.8 (SIF); for turbidity threshold (L, M, H) 7.4: pH 7.4 (HEPES)
Experimental: As an indication of relative solubility, the turbidity of compounds in aqueous solutions is assessed. To assess possible compound properties in different physiological compartments, such as stomach, intestine, and blood, a series of aqueous buffers with varying pH is used. Thus each compound is diluted into four different physiologically relevant buffers and solution turbidity is measured by spectrophotometry.
Compounds are dissolved at a concentration of 25 mM in dimethyl sulfoxide, then serially diluted 1:1 into a 96 well plate, diluting 10 times in pure dimethyl sulfoxide, with the final well of each row a dimethyl sulfoxide blank. In an assay plate, 99 μL of appropriate buffer is added to each well, and 1 μL of each sample dilution is added to the buffer, achieving a range of final total concentrations in aqueous solutions having different pH. The buffers used are Simulated Gastric Fluid (SGF-pH 1.5) 0.5M NaCl, pH 1.5; Simulated Intestinal fluid (SIF-pH 4.5 and pH 6.8) 0.05M NaH2PO4, pH 4.5 and 6.8; and Hepes Buffer (HEPES-pH 7.4) 10 mM HEPES, 150 mM NaCl, pH 7.4. Control compounds pyrene, estriol and propranolol HCl are also assessed. Plates are spun and then mixed for 1 minute, and the absorbance is read using a Tecan Safire II to read wavelengths in the visible range (490, 535, and 650 nm) at four locations per well, reflecting the degree of turbidity present. The average optical density for each wavelength in each well is graphed vs. compound concentration, and the concentration at which the curve crosses a threshold O.D. of 0.01 for each wavelength is reported as the endpoint turbidity assay result. The average of the three wavelengths is used to compare turbidity of compounds. Compounds are considered to have low solubility if the threshold concentration is <31.3 μM, moderate solubility if the threshold concentration is 31.3 μM to 250 μM, and high solubility if the threshold concentration is >250 μM.

[2] = target: CYP3A4(BQ) (Homo sapiens (Human), UniProt P08684); experiment: CYP enzyme inhibition, fluorescent substrate
Sequence of CYP3A4(BQ) (P08684 whole entry): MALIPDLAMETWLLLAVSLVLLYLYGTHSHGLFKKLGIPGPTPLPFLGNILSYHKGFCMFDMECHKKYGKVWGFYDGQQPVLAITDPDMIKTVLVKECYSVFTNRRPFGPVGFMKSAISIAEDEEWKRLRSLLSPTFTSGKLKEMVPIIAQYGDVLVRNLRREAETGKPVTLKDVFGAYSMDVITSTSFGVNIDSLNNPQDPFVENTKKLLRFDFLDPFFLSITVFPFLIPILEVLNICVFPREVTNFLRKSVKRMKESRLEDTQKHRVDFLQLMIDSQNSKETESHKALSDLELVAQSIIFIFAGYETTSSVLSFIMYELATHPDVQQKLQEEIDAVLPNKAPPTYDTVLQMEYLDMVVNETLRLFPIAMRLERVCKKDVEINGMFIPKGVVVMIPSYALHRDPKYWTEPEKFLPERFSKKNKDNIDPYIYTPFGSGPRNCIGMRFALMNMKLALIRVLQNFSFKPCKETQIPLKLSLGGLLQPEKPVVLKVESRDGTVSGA
Procedure, shortened: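 […]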

[3] = read-out: Cyp IC50 (μM) 3A4(BQ), BQ substrate

Row | SMILES | turbidity threshold (L, M, H) 1.4 [1] | turbidity threshold (L, M, H) 4.5 [1] | turbidity threshold (L, M, H) 6.8 [1] | turbidity threshold (L, M, H) 7.4 [1] | IC50 [2] | IC50 [2, 3]
1 | Cc1cnc2[nH]cc(Cc3ccc(NCc4cnccc4C(F)(F)F)nc3F)c2c1 [Compound P-2062, [6-Fluoro-5-(5-methyl-1H-pyrrolo[2,3-b]pyridin-3-ylmethyl)-pyridin-2-yl]-(4-trifluoromethyl-pyridin-3-ylmethyl)-amine] | H (high solubility if the threshold concentration is >250 μM) | L (low solubility if the threshold concentration is <31.3 μM) | L (low solubility if the threshold concentration is <31.3 μM) | L (low solubility if the threshold concentration is <31.3 μM) | 5 to 10 µM | 
2 | COc1ccc(CNc2ncc(Cc3c[nH]c4ncc(C)cc34)cc2C)cn1 [Compound P-1554, (6-Methoxy-pyridin-3-ylmethyl)-[3-methyl-5-(5-methyl-1H-pyrrolo[2,3-b]pyridin-3-ylmethyl)-pyridin-2-yl]-amine] | H (high solubility if the threshold concentration is >250 μM) | H (high solubility if the threshold concentration is >250 μM) | M (moderate solubility if the threshold concentration is 31.3 μM to 250 μM) | M (moderate solubility if the threshold concentration is 31.3 μM to 250 μM) |  | 
3 | COc1ncc(F)cc1CNc1ncc(Cc2c[nH]c3ncc(Cl)cc23)cn1 [Compound P-2064, [5-(5-Chloro-1H-pyrrolo[2,3-b]pyridin-3-ylmethyl)-pyrimidin-2-yl]-(5-fluoro-2-methoxy-pyridin-3-ylmethyl)-amine] | H (high solubility if the threshold concentration is >250 μM) | M (moderate solubility if the threshold concentration is 31.3 μM to 250 μM) | L (low solubility if the threshold concentration is <31.3 μM) | L (low solubility if the threshold concentration is <31.3 μM) |  | > 10 µM
4 | Cc1cnc2[nH]cc(Cc3cnc(NCc4cccc(N5CCCC5)n4)nc3)c2c1 [Compound P-2082, [5-(5-Methyl-1H-pyrrolo[2,3-b]pyridin-3-ylmethyl)-pyrimidin-2-yl]-(6-pyrrolidin-1-yl-pyridin-2-ylmethyl)-amine] |  |  |  |  |  | < 5 µM
5 | CCS(=O)(=O)Nc1ccccc1CNc1ccc(Cc2c[nH]c3ncc(C)cc23)c(F)n1 [Compound P-2198, Ethanesulfonic acid (2-{[6-fluoro-5-(5-methyl-1H-pyrrolo[2,3-b]pyridin-3-ylmethyl)-pyridin-2-ylamino]-methyl}-phenyl)-amide] | M (moderate solubility if the threshold concentration is 31.3 μM to 250 μM) | L (low solubility if the threshold concentration is <31.3 μM) | L (low solubility if the threshold concentration is <31.3 μM) | L (low solubility if the threshold concentration is <31.3 μM) |  | 
6 | Cn1cc(F)cc(CNc2ncc(Cc3c[nH]c4ncc(Cl)cc34)cn2)c1=O [Compound P-2157, 3-{[5-(5-Chloro-1H-pyrrolo[2,3-b]pyridin-3-ylmethyl)-pyrimidin-2-ylamino]-methyl}-5-fluoro-1-methyl-1H-pyridin-2-one] |  |  |  |  |  | > 10 µM
7 | Cc1cnc2[nH]cc(Cc3cnc(NCc4cccc(N5CCOCC5)n4)nc3)c2c1 [Compound P-2081, [5-(5-Methyl-1H-pyrrolo[2,3-b]pyridin-3-ylmethyl)-pyrimidin-2-yl]-(6-morpholin-4-yl-pyridin-2-ylmethyl)-amine] |  |  |  |  | 5 to 10 µM | 
8 | Fc1cc(Cc2c[nH]c3ncc(Cl)cc23)cnc1NCc1ccc(C(F)(F)F)nc1 [Compound P-2172, [5-(5-Chloro-1H-pyrrolo[2,3-b]pyridin-3-ylmethyl)-3-fluoro-pyridin-2-yl]-(6-trifluoromethyl-pyridin-3-ylmethyl)-amine] | H (high solubility if the threshold concentration is >250 μM) | L (low solubility if the threshold concentration is <31.3 μM) | L (low solubility if the threshold concentration is <31.3 μM) | L (low solubility if the threshold concentration is <31.3 μM) |  | 
9 | COc1ccc(CNc2ccc(Cc3c[nH]c4ncc(C)cc34)c(F)n2)c(OC)n1 [Compound P-2097, (2,6-Dimethoxy-pyridin-3-ylmethyl)-[6-fluoro-5-(5-methyl-1H-pyrrolo[2,3-b]pyridin-3-ylmethyl)-pyridin-2-yl]-amine] |  |  |  |  | 5 to 10 µM | 
10 | CS(=O)(=O)Nc1cnc2[nH]cc(Cc3ccc(NCc4ccc(Cl)nc4)nc3F)c2c1 [Compound P-1679, N-(3-{6-[(6-Chloro-pyridin-3-ylmethyl)-amino]-2-fluoro-pyridin-3-ylmethyl}-1H-pyrrolo[2,3-b]pyridin-5-yl)-methanesulfonamide] | M (moderate solubility if the threshold concentration is 31.3 μM to 250 μM) | L (low solubility if the threshold concentration is <31.3 μM) | L (low solubility if the threshold concentration is <31.3 μM) | L (low solubility if the threshold concentration is <31.3 μM) |  | 
11 | Cc1cnc2[nH]cc(Cc3ccc(NCc4cccnc4F)nc3F)c2c1 [Compound P-2103, [6-Fluoro-5-(5-methyl-1H-pyrrolo[2,3-b]pyridin-3-ylmethyl)-pyridin-2-yl]-(2-fluoro-pyridin-3-ylmethyl)-amine] |  |  |  |  | 5 to 10 µM | 
12 | COc1ncc(F)cc1CNc1ccc(Cc2c[nH]c3ncc(NC(C)=O)cc23)c(F)n1 [Compound P-1669, N-(3-{2-fluoro-6-[(5-fluoro-2-methoxy-pyridin-3-ylmethyl)-amino]-pyridin-3-ylmethyl}-1H-pyrrolo[2,3-b]pyridin-5-yl)-acetamide] | M (moderate solubility if the threshold concentration is 31.3 μM to 250 μM) | M (moderate solubility if the threshold concentration is 31.3 μM to 250 μM) | M (moderate solubility if the threshold concentration is 31.3 μM to 250 μM) | M (moderate solubility if the threshold concentration is 31.3 μM to 250 μM) |  | 
13 | FC(F)(F)c1ccncc1CNc1ccc(Cc2c[nH]c3ncc(Cl)cc23)cn1 [Compound P-2063, [5-(5-Chloro-1H-pyrrolo[2,3-b]pyridin-3-ylmethyl)-pyridin-2-yl]-(4-trifluoromethyl-pyridin-3-ylmethyl)-amine] |  |  |  |  | 5 to 10 µM | 
14 | Cc1cnc2[nH]cc(Cc3ccc(NCc4ccc(Cl)nc4)nc3F)c2c1 [Compound P-2088, (6-Chloro-pyridin-3-ylmethyl)-[6-fluoro-5-(5-methyl-1H-pyrrolo[2,3-b]pyridin-3-ylmethyl)-pyridin-2-yl]-amine] |  |  |  |  | 5 to 10 µM | 
15 | COc1cnc2[nH]cc(Cc3ccc(NCc4cccnc4OC)nc3F)c2c1 [Compound P-2043, [6-Fluoro-5-(5-methoxy-1H-pyrrolo[2,3-b]pyridin-3-ylmethyl)-pyridin-2-yl]-(2-methoxy-pyridin-3-ylmethyl)-amine] |  |  |  |  | 5 to 10 µM | 
16 | Cc1cnc2[nH]cc(Cc3ccc(NCc4ccnc(F)c4)nc3F)c2c1 [Compound P-2118, [6-Fluoro-5-(5-methyl-1H-pyrrolo[2,3-b]pyridin-3-ylmethyl)-pyridin-2-yl]-(2-fluoro-pyridin-4-ylmethyl)-amine] |  |  |  |  |  | > 10 µM
17 | COc1cnc2[nH]cc(Cc3cnc(NCc4ccc(C(F)(F)F)nc4)c(F)c3)c2c1 [Compound P-2147, [3-Fluoro-5-(5-methoxy-1H-pyrrolo[2,3-b]pyridin-3-ylmethyl)-pyridin-2-yl]-(6-trifluoromethyl-pyridin-3-ylmethyl)-amine] |  |  |  |  | 5 to 10 µM | 
18 | Cc1cnc2[nH]cc(Cc3cnc(NCc4cccc(C)n4)nc3)c2c1 [Compound P-2079, (6-Methyl-pyridin-2-ylmethyl)-[5-(5-methyl-1H-pyrrolo[2,3-b]pyridin-3-ylmethyl)-pyrimidin-2-yl]-amine] |  |  |  |  | 5 to 10 µM | 
19 | COc1ncccc1CNc1ncc(Cc2c[nH]c3ncc(C)cc23)cn1 [Compound P-2139, (2-Methoxy-pyridin-3-ylmethyl)-[5-(5-methyl-1H-pyrrolo[2,3-b]pyridin-3-ylmethyl)-pyrimidin-2-yl]-amine] |  |  |  |  |  | > 10 µM
20 | Cc1ccc(CNc2ccc(Cc3c[nH]c4ncc(C)cc34)c(F)n2)nc1 [Compound P-2131, [6-Fluoro-5-(5-methyl-1H-pyrrolo[2,3-b]pyridin-3-ylmethyl)-pyridin-2-yl]-(5-methyl-pyridin-2-ylmethyl)-amine] |  |  |  |  |  | > 10 µM
